According to ChEMBL document CHEMBL1145073, “DNA binding ligands targeting drug-resistant bacteria: structure, activity, and pharmacology” (J Med Chem, 2003):
In brackets after ≈: the same amount, converted by molar mass.

Legend:
Type in all cases: functional
[1] = system: Staphylococcus aureus; assay: In vitro antimicrobial activity against methicillin resistant Staphylococcus aureus 27660
[2] = In vitro antimicrobial activity against penicillin-intermediate Streptococcus pneumoniae 49619
[3] = system: Enterococcus faecalis; assay: In vitro antimicrobial activity against vancomycin-susceptible Enterococcus faecalis 29212

Row | MIC [2] [µg/mL] | MIC [3] [µg/mL] | SMILES | MIC [1] [µg/mL]
1 | 2 (≈ 2.92 µM) | > 32 | Cn1cc(NC(=O)c2cc(NC(=O)c3cc(NC(=O)c4csc(-c5cccnc5)n4)cn3C)cn2C)cc1C(=O)NCCN1CCOCC1 | 
2 | 4 (≈ 6.65 µM) | > 32 | Cn1cc(NC(=O)c2cc(NC(=O)c3cc(NC(=O)c4cccnc4)cn3C)cn2C)cc1C(=O)NCCN1CCOCC1 | 
3 | 2 (≈ 2.79 µM) | > 32 | Cn1cc(NC(=O)c2cc(NC(=O)c3cc(NC(=O)c4sc(-c5ccccc5)cc4Cl)cn3C)cn2C)cc1C(=O)NCCN1CCOCC1 | 
4 | 0.125 (≈ 0.19 µM) | 1 (≈ 1.52 µM) | Cn1cc(NC(=O)c2cc(NC(=O)c3cc(NC(=O)c4nsc5ccccc45)cn3C)cn2C)cc1C(=O)NCCN1CCOCC1 | 
5 | > 32 | > 32 | Cn1cc(NC(=O)c2cc(NC(=O)c3cc(NC(=O)c4cnc5ccccc5n4)cn3C)cn2C)cc1C(=O)NCCN1CCOCC1 | 
6 | 0.125 (≈ 0.171 µM) | 16 (≈ 21.9 µM) | Cn1cc(NC(=O)c2cc(NC(=O)c3cc(NC(=O)c4sc5cc(Cl)sc5c4Cl)cn3C)cn2C)cc1C(=O)NCCN1CCOCC1 | 
7 | 8 (≈ 12.2 µM) | 32 (≈ 48.9 µM) | Cn1cc(NC(=O)c2cc(NC(=O)c3cc(NC(=O)c4cc5ccccc5n4C)cn3C)cn2C)cc1C(=O)NCCN1CCOCC1 | 
8 | 0.125 (≈ 0.198 µM) | > 32 | COc1ccc(C(=O)Nc2cc(C(=O)Nc3cc(C(=O)Nc4cc(C(=O)NCCN5CCOCC5)n(C)c4)n(C)c3)n(C)c2)cc1 | 
9 | 0.25 (≈ 0.345 µM) | 32 (≈ 44.1 µM) | Cn1cc(NC(=O)c2cc(NC(=O)c3cc(NC(=O)c4sc5cc(Cl)ccc5c4Cl)cn3C)cn2C)cc1C(=O)NCCN1CCOCC1 | 
10 | 4 (≈ 5.27 µM) | 8 (≈ 10.5 µM) | Cn1cc(NC(=O)c2cc(NC(=O)c3cc(NC(=O)c4sc5cc(C(F)(F)F)ccc5c4Cl)cn3C)cn2C)cc1C(=O)NCCN1CCOCC1 | 
11 | 1 (≈ 1.52 µM) | 32 (≈ 48.7 µM) | Cn1cc(NC(=O)c2cc(NC(=O)c3cc(NC(=O)c4cc5ccccc5s4)cn3C)cn2C)cc1C(=O)NCCN1CCOCC1 | 
12 | 32 (≈ 53 µM) | > 32 | Cn1cc(NC(=O)c2cc(NC(=O)c3cc(NC(=O)c4cccn4C)cn3C)cn2C)cc1C(=O)NCCN1CCOCC1 | 
13 | 2 (≈ 3.06 µM) | > 32 | Cn1cc(NC(=O)c2cc(NC(=O)c3cc(NC(=O)c4ccc5cccnc5n4)cn3C)cn2C)cc1C(=O)NCCN1CCOCC1 | 
14 | 0.5 (≈ 0.779 µM) | 8 (≈ 12.5 µM) | Cn1cc(NC(=O)c2cc(NC(=O)c3cc(NC(=O)c4cn5cccnc5n4)cn3C)cn2C)cc1C(=O)NCCN1CCOCC1 | 
15 | 0.5 (≈ 0.752 µM) | 8 (≈ 12 µM) | COc1cc(Cl)ccc1C(=O)Nc1cc(C(=O)Nc2cc(C(=O)Nc3cc(C(=O)NCCN4CCOCC4)n(C)c3)n(C)c2)n(C)c1 | 
16 | 2 (≈ 3.3 µM) | 16 (≈ 26.4 µM) | Cn1cc(NC(=O)c2cc(NC(=O)c3cc(NC(=O)c4cccs4)cn3C)cn2C)cc1C(=O)NCCN1CCOCC1 | 
17 | 16 (≈ 24.6 µM) | > 32 | Cn1cc(NC(=O)c2cc(NC(=O)c3cc(NC(=O)c4cnc5ccccc5c4)cn3C)cn2C)cc1C(=O)NCCN1CCOCC1 | 
18 | 1 (≈ 1.46 µM) | > 32 | Cn1cc(NC(=O)c2cc(NC(=O)c3cc(NC(=O)c4ccc(OC(F)(F)F)cc4)cn3C)cn2C)cc1C(=O)NCCN1CCOCC1 | 
19 | > 32 | > 32 | Cn1cc(NC(=O)c2cc(NC(=O)c3cc(NC(=O)c4ccccn4)cn3C)cn2C)cc1C(=O)NCCN1CCOCC1 | 
20 | 2 (≈ 2.89 µM) | > 32 | Cn1cc(NC(=O)c2cc(NC(=O)c3cc(NC(=O)c4cc5cccc(Cl)c5s4)cn3C)cn2C)cc1C(=O)NCCN1CCOCC1 | 
21 | 0.5 (≈ 0.748 µM) | 16 (≈ 23.9 µM) | Cn1cc(NC(=O)c2cc(NC(=O)c3cc(NC(=O)c4cc5ccccc5oc4=O)cn3C)cn2C)cc1C(=O)NCCN1CCOCC1 | 
22 | 16 (≈ 26.6 µM) | 32 (≈ 53.3 µM) | Cn1cc(NC(=O)c2cc(NC(=O)c3cc(NC(=O)c4ccccc4)cn3C)cn2C)cc1C(=O)NCCN1CCOCC1 | 
23 | 2 (≈ 3.1 µM) | 16 (≈ 24.8 µM) | Cn1cc(NC(=O)c2cc(NC(=O)c3cc(NC(=O)c4ccc5c(c4)OCO5)cn3C)cn2C)cc1C(=O)NCCN1CCOCC1 | 
24 | > 32 | > 32 | Cc1nc2ccncc2cc1C(=O)Nc1cc(C(=O)Nc2cc(C(=O)Nc3cc(C(=O)NCCN4CCOCC4)n(C)c3)n(C)c2)n(C)c1 | 
25 | 1 (≈ 1.53 µM) | 32 (≈ 49.1 µM) | Cn1cc(NC(=O)c2cc(NC(=O)c3cc(NC(=O)c4ccc5ccccc5n4)cn3C)cn2C)cc1C(=O)NCCN1CCOCC1 | 
26 | 0.062 (≈ 0.093 µM) | 4 (≈ 6 µM) | Cn1cc(NC(=O)c2cc(NC(=O)c3cc(NC(=O)c4ccc(OC(F)F)cc4)cn3C)cn2C)cc1C(=O)NCCN1CCOCC1 | 
27 | 8 (≈ 13.5 µM) | > 32 | Cn1cc(NC(=O)c2cc(NC(=O)c3cc(NC(=O)c4ccoc4)cn3C)cn2C)cc1C(=O)NCCN1CCOCC1 | 
28 | 0.25 (≈ 0.383 µM) | 4 (≈ 6.13 µM) | Cn1cc(NC(=O)c2cc(NC(=O)c3cc(NC(=O)c4ccc5cnccc5n4)cn3C)cn2C)cc1C(=O)NCCN1CCOCC1 | 
29 | 0.031 (≈ 0.0484 µM) | 2 (≈ 3.12 µM) | Cn1cc(NC(=O)c2cc(NC(=O)c3cc(NC(=O)c4cn5ccccc5n4)cn3C)cn2C)cc1C(=O)NCCN1CCOCC1 | 

Continued, compound first:

Row | SMILES | MIC [2] [µg/mL] | MIC [3] [µg/mL] | MIC [1] [µg/mL]
30 | Cn1cc(NC(=O)c2cc(NC(=O)c3cc(-c4ccc5ccccc5c4)cn3C)cn2C)cc1C(=O)NCCN1CCOCC1 | 4 (≈ 6.58 µM) | 4 (≈ 6.58 µM) | 8 (≈ 13.2 µM)
31 | Cn1cc(NC(=O)c2cc(NC(=O)c3cc(NC(=O)c4sc5cc(F)c(F)cc5c4Cl)cn3C)cn2C)cc1C(=O)NCCN1CCOCC1 | 0.5 (≈ 0.688 µM) | 8 (≈ 11 µM) | 
32 | Cn1cc(NC(=O)c2cc(NC(=O)c3cc(NC(=O)c4cc5ccccc5cn4)cn3C)cn2C)cc1C(=O)NCCN1CCC(F)CC1 | 0.031 (≈ 0.0464 µM) | 0.125 (≈ 0.188 µM) | 0.25 (≈ 0.374 µM)
33 | CN(C)CC(C)(C)CNC(=O)c1cc(NC(=O)c2cc(NC(=O)c3cc(NC(=O)c4cc5ccccc5cn4)cn3C)cn2C)cn1C | 1 (≈ 1.53 µM) | 1 (≈ 1.53 µM) | 1 (≈ 1.53 µM)
34 | Cn1cc(NC(=O)c2cc(NC(=O)c3cc(-c4cccc(Cl)c4)cn3C)cn2C)cc1C(=O)NCCN1CCOCC1 | 8 (≈ 13.5 µM) | 8 (≈ 13.5 µM) | 8 (≈ 13.5 µM)
35 | Cn1cc(NC(=O)c2cc(NC(=O)c3cc(-c4ccccc4Cl)cn3C)cn2C)cc1C(=O)NCCN1CCOCC1 | 32 (≈ 54 µM) | 16 (≈ 27 µM) | 32 (≈ 54 µM)
36 | Cn1cc(NC(=O)c2cc(NC(=O)c3cc(NC(=O)c4sccc4Cl)cn3C)cn2C)cc1C(=O)NCCN1CCC(O)CC1 | 2 (≈ 3.05 µM) | 4 (≈ 6.11 µM) | 4 (≈ 6.11 µM)
37 | Cn1cc(NC(=O)c2cc(NC(=O)c3cc(NC(=O)c4cc5ccccc5cn4)cn3C)cn2C)cc1C(=O)NCCN1CCNCC1 | > 32 | > 32 | 16 (≈ 24.6 µM)
38 | Cc1nnsc1-c1cc(C(=O)Nc2cc(C(=O)Nc3cc(C(=O)NCCN4CCOCC4)n(C)c3)n(C)c2)n(C)c1 | 2 (≈ 3.45 µM) | 8 (≈ 13.8 µM) | 16 (≈ 27.6 µM)
39 | Cn1cc(NC(=O)c2cc(NC(=O)c3cc(NC(=O)c4sccc4Cl)cn3C)cn2C)cc1C(=O)NCc1ccccn1 | 1 (≈ 1.62 µM) | 4 (≈ 6.46 µM) | > 32
40 | CC(C)S(=O)(=O)c1csc(-c2cc(C(=O)Nc3cc(C(=O)Nc4cc(C(=O)NCCN5CCOCC5)n(C)c4)n(C)c3)n(C)c2)c1Cl | 1 (≈ 1.42 µM) | 4 (≈ 5.68 µM) | 4 (≈ 5.68 µM)
41 | Cn1cc(NC(=O)c2cc(NC(=O)c3cc(-c4ccco4)cn3C)cn2C)cc1C(=O)NCCN1CCOCC1 | 1 (≈ 1.83 µM) | 32 (≈ 58.4 µM) | 32 (≈ 58.4 µM)
42 | COc1ccsc1-c1cc(C(=O)Nc2cc(C(=O)Nc3cc(C(=O)NCCN4CCOCC4)n(C)c3)n(C)c2)n(C)c1 | > 32 | > 32 | 32 (≈ 53.9 µM)
43 | CN1CCN(CCNC(=O)c2cc(NC(=O)c3cc(NC(=O)c4cc(NC(=O)c5sccc5Cl)cn4C)cn3C)cn2C)CC1 | 2 (≈ 3.06 µM) | 32 (≈ 48.9 µM) | 4 (≈ 6.11 µM)
44 | Cn1cc(NC(=O)c2cc(NC(=O)c3cc(-c4sccc4C#N)cn3C)cn2C)cc1C(=O)NCCN1CCOCC1 | 0.5 (≈ 0.849 µM) | 2 (≈ 3.4 µM) | 4 (≈ 6.79 µM)
45 | CN1CCN(NC(=O)c2cc(NC(=O)c3cc(NC(=O)c4cc(NC(=O)c5cc6ccccc6cn5)cn4C)cn3C)cn2C)CC1 | 16 (≈ 25.1 µM) | 16 (≈ 25.1 µM) | 16 (≈ 25.1 µM)
46 | Cn1cc(NC(=O)c2cc(NC(=O)c3cc(-c4ccc(Cl)s4)cn3C)cn2C)cc1C(=O)NCCN1CCOCC1 | 2 (≈ 3.34 µM) | 2 (≈ 3.34 µM) | 4 (≈ 6.69 µM)
47 | Cn1cc(NC(=O)c2cc(NC(=O)c3cc(-c4ccccc4F)cn3C)cn2C)cc1C(=O)NCCN1CCOCC1 | 1 (≈ 1.74 µM) | 0.5 (≈ 0.869 µM) | 8 (≈ 13.9 µM)
48 | Cn1cc(NC(=O)c2cc(NC(=O)c3cc(-c4cc5ccccc5[nH]4)cn3C)cn2C)cc1C(=O)NCCN1CCOCC1 | 2 (≈ 3.35 µM) | 8 (≈ 13.4 µM) | 8 (≈ 13.4 µM)
49 | Cn1cc(NC(=O)c2cc(NC(=O)c3cc(-c4cc(Cl)c(Cl)s4)cn3C)cn2C)cc1C(=O)NCCN1CCOCC1 | 4 (≈ 6.32 µM) | 8 (≈ 12.6 µM) | 8 (≈ 12.6 µM)
